Here are results for 1 molecule from patent US8389011B2, “Pharmaceutical compositions of cholesteryl ester transfer protein inhibitors” (Bend Research, Inc., priority 2000, dated 2013).

This series is described as follows: In vitro dissolution test, microcentrifuge method, in model fasted duodenal solution (MFDS). Format: physicochemical. The conditions noted are these: summary Table 48. On the procedure: The compositions comprising the CETP inhibitor and concentration-enhancing polymer provide enhanced concentration of the dissolved CETP inhibitor in in vitro dissolution tests. It has been determined that enhanced drug concentration in in vitro dissolution tests in Model Fasted Duodenal (MFD) solution or Phosphate Buffered Saline (PBS) is a good indicator of in vivo performance and bioavailability. An appropriate PBS solution is an aqueous solution comprising 20 mM sodium phosphate (Na2HPO4), 47 mM potassium phosphate (KH2PO4), 87 mM NaCl, and 0.2 mM KCl, adjusted to pH 6.5 with NaOH. An appropriate MFD solution is the same PBS solution wherein additionally is present 7.3 mM sodium taurocholic acid and 1.4 mM of 1-palmitoyl-2-oleyl-sn-glycero-3-phosphocholine. In particular, a composition of the present invention can be dissolution-tested by adding it to MFD or PBS solution and agitating to promote dissolution.
A typical in vitro test to evaluate enhanced drug concentration in aqueous solution can be conducted by (1) adding with agitation a sufficient quantity of control composition, typically the CETP inhibitor alone, to the in vitro test medium, typically MFD or PBS solution, to achieve equilibrium concentration of the CETP inhibitor; (2) adding with agitation a sufficient quantity of test composition (e.g., the CETP inhibitor and polymer) in an equivalent test medium, such that if all the CETP inhibitor dissolved, the theoretical concentration of CETP inhibitor would exceed the equilibrium concentration of the CETP inhibitor by a factor of at least 10, and preferably a factor of at least 100; and (3) comparing the measured MDC and/or aqueous concentration versus time AUC of the test composition in the test medium with the equilibrium concentration, and/or the aqueous concentration versus time AUC of the control composition. In conducting such a dissolution test, the amount of test composition or control composition used is an amount such that if all of the CETP inhibitor dissolved the CETP inhibitor concentration would be at least 10-fold and preferably at least 100-fold that of the equilibrium concentration. Indeed, for some extremely insoluble CETP inhibitors, in order to identify the MDC achieved it may be necessary to use an amount of test composition such that if all of the CETP inhibitor dissolved, the CETP inhibitor concentration would be 10,000-fold or even more, that of the equilibrium concentration of the CETP inhibitor.
The concentration of dissolved CETP inhibitor is typically measured as a function of time by sampling the test medium and plotting CETP inhibitor concentration in the test medium vs. time so that the MDC can be ascertained. The MDC is taken to be the maximum value of dissolved CETP inhibitor measured over the duration of the test.
To avoid large CETP inhibitor particulates which would give an erroneous determination, the test solution is either filtered or centrifuged. “Dissolved CETP inhibitor” is typically taken as that material that either passes a 0.45 μm syringe filter or, alternatively, the material that remains in the supernatant following centrifugation. Filtration can be conducted using a 13 mm, 0.45 μm polyvinylidine difluoride syringe filter sold by Scientific Resources under the trademark TITAN®. Centrifugation is typically carried out in a polypropylene microcentrifuge tube by centrifuging at 13,000 G for 60 seconds. Other similar filtration or centrifugation methods can be employed and useful results obtained. For example, using other types of microfilters may yield values somewhat higher or lower (±10-40%) than that obtained with the filter specified above but will still allow identification of preferred dispersions. […]

Molecules are shown by their SMILES.

In the case of `CCOC(=O)N1c2ccc(C(F)(F)F)cc2[C@@H](N(Cc2cc(C(F)(F)F)cc(C(F)(F)F)c2)C(=O)OC)C[C@H]1CC` [Control 2, [2R,4S]4-[(3,5-bis-trifluoromethyl-benzyl)-methoxycarbonyl-amino]-2-ethyl-6-trifluoromethyl-3,4-dihydro-2H-quinoline-1-carboxylic acid ethyl ester], the AUC90 (AUC through 90 min) is <88 min-μg/ml. In addition, under “maximum Drug 2 concentration through 90 min”, the “Cmax, 90” value is <1000 ng/mL.
